Experimental data taken from patent publication US9474279B2, “Methods of controlling insects” (Syngenta Participations AG, priority 2012, dated 2016).

Assays:
Assay type in all cases: in vivo
[1] = test system: Nilaparvata lugens (Brown Plant Hopper); experiment: Nilaparvata lugens (Brown Plant Hopper) rice seedling spray test, mortality; conditions: N3 nymphs, mortality 6-12 days after treatment
Method: Nilaparvata lugens (Brown Plant Hopper) Rice seedlings are treated with the diluted test solutions in a spray chamber. After drying, plants are infested with 20 N3 nymphs (2 replicates). 6-12 days after the treatment samples are checked for mortality

[2] = test system: Chilo suppressalis (Rice Stem Borer); experiment: Chilo suppressalis (Rice Stem Borer) treated rice leaf petri dish test, mortality; conditions: L2 larvae, mortality 5 days after treatment
Method: Chilo suppressalis (Rice Stem Borer) Rice seedlings are treated and after drying the leaves are cut and transferred into a petri dish coated with wet filter paper. 10 larvae (L2) are added and the dish is covered with a filter tissue and a plastic lid. 5 days after treatment the percentage mortality is assessed (3 replicates per concentration).

[3] = test system: Nephotettix virescens (Green Leafhopper); experiment: Nephotettix virescens (Green Leafhopper) rice seedling spray test, mortality; conditions: N5 nymphs, mortality 5 days after treatment
Method: […] Nephotettix virescens (Green Leafhopper) Rice seedlings are treated with the diluted test solutions in a spray chamber. After drying, plants are infested with 10 N5 nymphs (3 replicates). 5 days after the treatment samples are checked for mortality.

Row | SMILES | Control/% ([1]; rate 12.5 ppm) [%] | Control/% ([1]; rate 25 ppm) [%] | Control/% ([1]; rate 50 ppm) [%] | other results
1 | CCN1OC[C@@H](NC(=O)c2ccc(C3=NO[C@@](c4cc(Cl)c(Cl)c(Cl)c4)(C(F)(F)F)C3)cc2Br)C1=O [Compound A33] | 80 | 98 | 98 | –
2 | CCN1OC[C@@H](NC(=O)c2ccc(C3=NO[C@@](c4cc(Cl)cc(Cl)c4)(C(F)(F)F)C3)cc2C(F)(F)F)C1=O [Compound A28] | 0 | 50 | 95 | –
3 | CCN1OCC(NC(=O)c2ccc(C3=COC(c4cc(Cl)cc(Cl)c4)(C(F)(F)F)C3)cc2C)C1=O (mixture of isomers) [Compound C1] | 0 | 15 | 95 | –
4 | CCN1OC[C@@H](NC(=O)c2ccc(C3=NO[C@@](c4cc(Cl)c(Cl)c(Cl)c4)(C(F)(F)F)C3)cc2C(F)(F)F)C1=O [Compound A29] | 55 | 88 | 100 | –
5 | CCN1OCC(NC(=O)c2ccc(C3=NOC(c4cc(Cl)cc(Cl)c4)(C(F)(F)F)C3)cc2C)C1=O (mixture of isomers) [Compound A4] | 88 | 93 | 100 | –
6 | Cc1cc(C2=NOC(c3cc(Cl)c(Cl)c(Cl)c3)(C(F)(F)F)C2)ccc1C(=O)NC1CON(CC(F)(F)F)C1=O (mixture of isomers) [Compound A23] | 90 | 98 | 100 | –
7 | CCN1OCC(NC(=O)c2ccc(C3=NOC(c4cc(Cl)c(F)c(Cl)c4)(C(F)(F)F)C3)cc2C)C1=O (mixture of isomers) [Compound A21] | – | – | 100 | –
8 | CCN1OC[C@@H](NC(=O)c2ccc(C3=NO[C@@](c4cc(Cl)c(F)c(Cl)c4)(C(F)(F)F)C3)cc2Cl)C1=O [Compound A25] | 100 | 100 | 100 | –
9 | Cc1cc(C2=NOC(c3cc(Cl)cc(Cl)c3)(C(F)(F)F)C2)ccc1C(=O)NC1CON(CC(F)(F)F)C1=O (mixture of isomers) [Compound A19] | 100 | 100 | 100 | –
10 | Cc1cc(C2=NO[C@@](c3cc(Cl)cc(Cl)c3)(C(F)(F)F)C2)ccc1C(=O)N[C@@H]1CON(CC(F)(F)F)C1=O [Compound A9] | 98 | 100 | 100 | Control/% ([2]; application rate 0.05 ppm): 43%; Control/% ([2]; application rate 0.2 ppm): 100%; Control/% ([2]; application rate 0.8 ppm): 100%; Control/% ([3]; application rate 3 ppm): 100%; Control/% ([3]; application rate 12 ppm): 100%; Control/% ([3]; application rate 50 ppm): 100%; Control/% ([3]; application rate 200 ppm): 100%
11 | CCN1OC[C@@H](NC(=O)c2ccc(C3=NO[C@@](c4cc(Cl)cc(Br)c4)(C(F)(F)F)C3)cc2C)C1=O [Compound A16] | 95 | 97 | 98 | –
12 | CCN1OCC(NC(=O)c2ccc(C3=NOC(c4cc(Cl)c(F)c(Cl)c4)(C(F)(F)F)C3)cc2C)C1=O (mixture of isomers) [Compound A8] | 100 | 100 | 100 | –
13 | CCN1OC[C@@H](NC(=O)c2ccc(C3=NO[C@@](c4cc(Cl)cc(Cl)c4)(C(F)(F)F)C3)cc2Br)C1=O [Compound A34] | 98 | 100 | 100 | –
14 | Cc1cc(C2=NOC(c3cc(Cl)cc(Cl)c3)(C(F)(F)F)C2)ccc1C(=O)NC1CON(C)C1=O (mixture of isomers) [Compound A5] | 0 | 65 | 98 | –
15 | Cc1cc(C2=NO[C@@](c3cc(Cl)cc(Cl)c3)(C(F)(F)F)C2)ccc1C(=O)N[C@@H]1CON(CC(F)F)C1=O [Compound A12] | 100 | 100 | 100 | –
16 | CCN1OCC(NC(=O)c2ccc(C3=NCC(c4cc(Cl)cc(Cl)c4)(C(F)(F)F)C3)cc2C)C1=O (mixture of isomers) [Compound B1] | 0 | 78 | 90 | –
17 | CCN1OCC(NC(=O)c2ccc(C3=NOC(c4cc(F)cc(Cl)c4)(C(F)(F)F)C3)cc2C)C1=O (mixture of isomers) [Compound A11] | 80 | 55 | 100 | –
18 | CCN1OC[C@@H](NC(=O)c2ccc(C3=NO[C@@](c4cc(Cl)cc(Cl)c4)(C(F)(F)F)C3)cc2C)C1=O [Compound A3] | 100 | 100 | 100 | Control/% ([2]; application rate 0.05 ppm): 97%; Control/% ([2]; application rate 0.2 ppm): 100%; Control/% ([2]; application rate 0.8 ppm): 100%; Control/% ([3]; application rate 3 ppm): 90%; Control/% ([3]; application rate 12 ppm): 100%; Control/% ([3]; application rate 50 ppm): 100%; Control/% ([3]; application rate 200 ppm): 100%

Row | SMILES | Control/% ([1]; rate 12.5 ppm) [%] | Control/% ([1]; rate 25 ppm) [%] | Control/% ([1]; rate 50 ppm) [%] | other results
19 | CCN1OC[C@@H](NC(=O)c2ccc(C3=NO[C@@](c4cc(Cl)c(Cl)c(Cl)c4)(C(F)(F)F)C3)cc2C)C1=O [Compound A35] | 93 | 100 | 98 | –
20 | CCN1OC[C@@H](NC(=O)c2ccc(C3=NO[C@@](c4cc(Cl)cc(C(F)(F)F)c4)(C(F)(F)F)C3)cc2C)C1=O [Compound A15] | 99 | 99 | 100 | –
21 | Cc1cc(C2=NOC(c3cc(Cl)cc(Cl)c3)(C(F)(F)F)C2)ccc1C(=O)NC1CON(C)C1=O (mixture of isomers) [Compound A22] | 98 | 100 | 100 | –
22 | CCN1OCC(NC(=O)c2ccc(C3=NOC(c4cc(C(F)(F)F)c(Cl)c(C(F)(F)F)c4)(C(F)(F)F)C3)cc2C)C1=O (mixture of isomers) [Compound A10] | 100 | 100 | 100 | –
23 | CCN1OC[C@@H](NC(=O)c2ccc(C3=NO[C@@](c4cccc(C(F)(F)F)c4)(C(F)(F)F)C3)cc2C)C1=O [Compound A30] | 93 | 100 | 98 | –
24 | CCN1OCC(NC(=O)c2ccc(C3=NOC(c4cc(Cl)cc(Cl)c4)(C(F)(F)F)C3)cc2C)C1=O (mixture of isomers) [Compound A18] | 100 | 100 | 100 | –
25 | CCN1OCC(NC(=O)c2ccc(C3=NOC(c4cc(Cl)c(Cl)c(Cl)c4)(C(F)(F)F)C3)cc2C)C1=O (mixture of isomers) [Compound A6] | 100 | 100 | 100 | –
26 | Cc1cc(C2=NOC(c3cc(Cl)cc(Cl)c3)(C(F)(F)F)C2)ccc1C(=O)NC1CON(CC(F)F)C1=O (mixture of isomers) [Compound A20] | 100 | 100 | 100 | –
27 | Cc1cc(C2=NOC(c3cc(Cl)cc(Cl)c3)(C(F)(F)F)C2)ccc1C(=O)NC1CON(C)C1=O (mixture of isomers) [Compound A1] | 93 | 93 | 98 | –
28 | Cc1cc(C2=NOC(c3cc(Cl)cc(Cl)c3)(C(F)(F)F)C2)ccc1C(=O)NC1CON(CC(F)(F)F)C1=O (mixture of isomers) [Compound A2] | 80 | 98 | 99 | –
29 | Cc1cc(C2=NO[C@@](c3cc(Cl)c(F)c(Cl)c3)(C(F)(F)F)C2)ccc1C(=O)N[C@@H]1CON(CC(F)(F)F)C1=O [Compound A14] | 100 | 100 | 100 | –
30 | CCN1OC[C@@H](NC(=O)c2ccc(C3=NO[C@@](c4cc(Cl)cc(C(F)(F)F)c4)(C(F)(F)F)C3)c3ccccc23)C1=O [Compound A26] | 83 | 100 | 100 | –
31 | Cc1cc(C2=NO[C@@](c3cc(Cl)cc(Br)c3)(C(F)(F)F)C2)ccc1C(=O)N[C@@H]1CON(CC(F)(F)F)C1=O [Compound A17] | 100 | 100 | 100 | –
32 | CCN1OCC(NC(=O)c2ccc(C3=NOC(c4cc(Cl)c(Br)c(Cl)c4)(C(F)(F)F)C3)cc2C)C1=O (mixture of isomers) [Compound A7] | 100 | 100 | 100 | –
33 | Cc1cc(C2=NCC(c3cc(Cl)cc(Cl)c3)(C(F)(F)F)C2)ccc1C(=O)NC1CON(CC(F)(F)F)C1=O (stereo not drawn) [Compound B3] | 100 | 100 | 100 | –
34 | CCN1OC[C@@H](NC(=O)c2ccc(C3=NO[C@@](c4cc(Cl)c(F)c(Cl)c4)(C(F)(F)F)C3)cc2C)C1=O [Compound A24] | 75 | 85 | 98 | –
35 | CCN1OCC(NC(=O)c2ccc(C3=NCC(c4cc(Cl)cc(Cl)c4)(C(F)(F)F)C3)cc2C)C1=O (stereo not drawn) [Compound B2] | 15 | 70 | 88 | –
36 | Cc1cc(C2=NO[C@@](c3cc(Cl)c(Cl)c(Cl)c3)(C(F)(F)F)C2)ccc1C(=O)N[C@@H]1CON(CC(F)(F)F)C1=O [Compound A13] | 75 | 100 | 98 | –
